Results published in patent publication US6232318A, “Pyrimidinedione derivatives useful as alpha 1A adrenoceptor antagonists” (Merck & Co., Ltd., priority 1999, dated 2001).

Experiments:
[1] = test system: human alpha 1d and alpha 1b adrenergic receptors; experiment: Selective binding assays: alpha 1d and alpha 1b membranes ([125I]-HEAT competition), compared with alpha 1a; conditions: alpha 1a vs alpha 1b and alpha 1d, ratio
Procedure: Membranes prepared from stably transfected human alpha 1d and alpha 1b cell lines (ATCC CRL 11138 and CRL 11139, respectively) were used to identify compounds that selectively bind to the human alpha 1a adrenergic receptor. These competition binding reactions (total volume=200 μl) contained 50 mM Tris-HCl pH. 7.4, 5 mM EDTA, 150 mM NaCl, 100 pM [^125 I]-HEAT, membranes prepared from cell lines transfected with the respective alpha 1 subtype expression plasmid and increasing amounts of unlabeled ligand. Reactions were incubated at room temperature for one hour with shaking. Reactions were filtered onto Whatman GF/C glass fiber filters with a Inotec 96 well cell harvester. Filters were washed three times with ice cold buffer and bound radioactivity was determined (Ki).

[2] = biological target: T1, human alpha 1a adrenergic receptor (Homo sapiens, UniProt P35348); experiment: Screening assay: alpha 1a adrenergic receptor binding ([125I]-HEAT competition, membranes of stably transfected cell line)
T1 sequence (P35348 1-466): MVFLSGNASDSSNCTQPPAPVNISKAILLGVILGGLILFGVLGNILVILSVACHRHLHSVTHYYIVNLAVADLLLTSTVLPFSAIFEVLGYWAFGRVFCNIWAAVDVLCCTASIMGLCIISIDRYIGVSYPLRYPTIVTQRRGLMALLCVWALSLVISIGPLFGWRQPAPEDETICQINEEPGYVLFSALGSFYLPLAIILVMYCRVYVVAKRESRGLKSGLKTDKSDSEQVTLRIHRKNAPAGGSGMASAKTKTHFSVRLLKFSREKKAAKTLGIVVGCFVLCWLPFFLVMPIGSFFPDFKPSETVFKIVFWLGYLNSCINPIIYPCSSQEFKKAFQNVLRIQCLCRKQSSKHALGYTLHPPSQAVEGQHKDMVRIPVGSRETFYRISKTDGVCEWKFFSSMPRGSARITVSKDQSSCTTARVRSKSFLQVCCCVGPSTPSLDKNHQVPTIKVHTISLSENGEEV
Procedure: Screening Assay: Alpha 1a Adrenergic Receptor Binding
Membranes prepared from the stably transfected human alpha 1a cell line (ATCC CRL 11140) were used to identify compounds that bind to the human alpha 1a adrenergic receptor. These competition binding reactions (total volume=200 μl) contained 50 mM Tris-HCl pH. 7.4, 5 mM EDTA, 150 mM NaCl, 100 pM [^125 I]-HEAT, membranes prepared from the alpha 1a cell line and increasing amounts of unlabeled ligand. Reactions were incubated at room temperature for one hour with shaking. Reactions were filtered onto Whatman GF/C glass fiber filters with a Inotec 96 well cell harvester. Filters were washed three times with ice cold buffer and bound radioactivity was determined (Ki).

| Compound | selectivity in binding to alpha 1a receptors versus binding to alpha 1b and alpha 1d receptors [1] [fold] | Ki ([2]; room temperature, 1 h, pH 7.4) [mM] | Ki ([2]; value in mM) [mM] |
| --- | --- | --- | --- |
| Cc1ccccc1C1(C#N)CCN(CCCn2c(=O)c(C)cn(Cc3ccccc3)c2=O)CC1 [Example 2, 1-[3-(3-Benzyl-5-methyl-2,6-dioxo-3,6-dihydro-2H-pyrimidin-1-yl)propyl]-4-ortho-tolylpiperidine-4-carbonitrile] | ≤ 10 | – | – |
| Cc1cn(Cc2ccccc2)c(=O)n(CCCN[C@H]2CC[C@](C#N)(c3ccc(F)cc3F)CC2)c1=O [Example 4, cis-4-[3-(3-Benzyl-5-methyl-2,6-dioxo-3,6-dihydro-2H-pyrimidin-1-yl)propylamino]-1-(2,4-difluorophenyl)cyclohexanecarbonitrile] | ≤ 10 | – | – |
| Cc1cn(Cc2ccccc2)c(=O)n(CCCN[C@H]2CC[C@@](C#N)(c3cc(F)cc(F)c3)CC2)c1=O [Example 9, cis-4-[3-(3-Benzyl-5-methyl-2,6-dioxo-3,6-dihydro-2H-pyrimidin-1-yl)propylamino]-1-(3,5-difluorophenyl)cyclohexanecarbonitrile] | ≤ 10 | – | 0.000115 |
| COc1ccccc1[C@H]1CC[C@H](NCCCn2c(=O)c(C)cn(Cc3ccccc3)c2=O)CC1 [Example 17, trans-1-Benzyl-3-{3-[4-(2-methoxyphenyl)cyclohexylamino]propyl}-5-methyl-1H-pyrimidine-2,4-dione] | ≤ 10 | – | – |
| Cc1c[nH]c(=O)n(CCCN[C@H]2CC[C@](C#N)(c3ccccc3)CC2)c1=O [Example 20, cis4-[3-(5-Methyl-2,6-dioxo-3,6-dihydro-2H-pyrimidin-1-yl)propylamino]-1-phenylcyclohexanecarbonitrile] | ≤ 10 | – | – |
| Cc1cn(CCCN[C@H]2CC[C@](C#N)(c3ccccc3C#N)CC2)c(=O)n(Cc2ccccc2)c1=O [Example 26, trans-2-{4-[3-(3-Benzyl-5-methyl-2,4-dioxo-3,4-dihydro-2H-pyrimidin-1-yl)propylamino]-1-cyanocyclohexyl}benzonitrile] | ≤ 10 | 0.00079 | – |

Now from value to compound:

| selectivity in binding to alpha 1a receptors versus binding to alpha 1b and alpha 1d receptors [1] [fold] | Ki ([2]; room temperature, 1 h, pH 7.4) [mM] | Ki ([2]; value in mM) [mM] | Compound |
| --- | --- | --- | --- |
| ≤ 10 | – | – | Cc1cn(Cc2ccccc2)c(=O)n(CCCN2CCC(c3ccc(F)cc3)CC2)c1=O [Example 1, 1-Benzyl-3-{3-[4-(4-fluorophenyl)piperidin-1-yl]propyl}-5-methyl-1H-pyrimidine-2,4-dione] |
| ≤ 10 | 0.0005 | – | Cc1cn(Cc2ccccc2)c(=O)n(CCCN[C@H]2CC[C@@](C#N)(c3ccccc3)CC2)c1=O [Example 6, trans-4-[3-(3-Benzyl-5-methyl-2,6-dioxo-3,6-dihydro-2H-pyrimidin-1-yl)propylamino]-1-phenylcyclohexanecarbonitrile] |
| ≤ 10 | 0.000755 | – | Cc1c[nH]c(=O)n(CCCN[C@H]2CC[C@@](C#N)(c3ccccc3)CC2)c1=O [Example 21, trans-4-[3-(5-Methyl-2,6-dioxo-3,6-dihydro-2H-pyrimidin-1-yl)propylamino]-1-phenylcyclohexanecarbonitrile] |
